Data on two compounds can be found in PMC10403075, “Short hydrocarbon stapled ApoC2-mimetic peptides activate lipoprotein lipase and lower plasma triglycerides in mice” (Frontiers in Cardiovascular Medicine, 2023).

For data set [1], the target named is T1, LPL from bovine milk (Bos taurus, UniProt P11151).
T1 construct: LPL from bovine milk (Sigma-Aldrich); purchased Sigma-Aldrich; host or cells: bovine milk (natural source)
T1 sequence (P11151 29-478): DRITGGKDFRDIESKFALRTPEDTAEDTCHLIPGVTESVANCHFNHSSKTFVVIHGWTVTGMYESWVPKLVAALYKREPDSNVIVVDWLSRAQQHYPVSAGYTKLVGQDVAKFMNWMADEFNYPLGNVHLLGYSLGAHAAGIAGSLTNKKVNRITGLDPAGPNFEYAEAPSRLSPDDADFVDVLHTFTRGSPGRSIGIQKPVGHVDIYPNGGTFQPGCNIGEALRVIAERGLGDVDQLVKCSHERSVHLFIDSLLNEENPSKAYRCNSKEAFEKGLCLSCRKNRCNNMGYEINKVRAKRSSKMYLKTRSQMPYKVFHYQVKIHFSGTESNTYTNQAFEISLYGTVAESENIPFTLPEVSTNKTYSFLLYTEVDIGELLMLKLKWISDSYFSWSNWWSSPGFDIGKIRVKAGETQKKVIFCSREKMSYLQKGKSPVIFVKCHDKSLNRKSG
As to the kind of experiment: In vitro LPL activity assay (NEFA generation, ApoC2-deficient plasma substrate). It is filed as biochemical. As for the experimental part: (§1) LPL activity was determined by measuring the generation of non-esterified fatty acids (NEFA). In a 96-well plate, 0–2 µM of an ApoC2 mimetic peptide, 0.83 nM of LPL from bovine milk (Sigma-Aldrich), ApoC2-deficient ethylenediaminetetraacetic acid (EDTA)-plasma (diluted with PBS to a final TG concentration of 0.67 mg/dl), 2 IU/ml heparin, 0.2% fatty acids free bovine serum albumin (BSA) (ICN Biomedicals), and PBS (Life Technologies) were combined in a final reaction volume of 50 μl. The reaction mixture was pre-incubated on ice for 30 min and incubated at 37°C for 1 h. NEFA were measured with a coupled enzyme reaction (Wako Diagnostics) in a Synergy H1 microplate reader (BioTek, USA).

Data set [2] is described as follows: Circular dichroism spectroscopy. The format is physicochemical. As to conditions: CD 190-250 nm, 0.1 cm cell, calculated from spectrum. The procedure: Circular dichroism (CD) spectra were acquired on a Chirascan Q100 spectrometer. CD spectra were recorded in the190–250 nm range, using a 0.1 cm quartz cell and analyzed with Bettsele® on-line software ([24]).

In data set [3] the test system is Apoc2^h/h mice. Briefly: Plasma lipids in ApoC2-hypomorphic mice after peptide injection. It is filed as in vivo, mouse. The following applies: single IP 1 umole/kg, n = 4. As for the experimental part:
ApoC2–hypomorphic mice (Apoc2^h/h) ([25]) and human ApoC3-transgenic (hAPOC3-tg) mice ([26]) were fed a regular rodent chow diet (NIH-31 chow diet: Zeigler Brothers Inc.). Peptides dissolved in 20 mM TRIS (pH 8.2) or vehicle control were injected intraperitoneally or intravenously at the indicated concentrations. Blood samples were collected from the retro-orbital sinus with a heparinized capillary tube. Whole blood was centrifuged at 1,000 g for 20 min at 4°C to obtain plasma. All animal procedures were approved by the National Heart, Lung, and Blood Institute Animal Care and Use Committee (protocol #H-0050).

The subject of another data set is trypsin. Briefly: Peptide proteolysis resistance, trypsin. The following applies: peptide 0.1 mM, 10 ug/ml trypsin, 20 mM ammonium bicarbonate pH 8.2, 37°C, MALDI-TOF with internal standards, first time point 3 h, triplicates. It is filed as in vitro ADME. The procedure: (§2) Peptides (0.1 mM) were incubated at 37°C in 20 mM ammonium bicarbonate buffer at pH 8.2, with 10 ug/ml trypsin or […] Proteinase K. To test resistance to Pepsin, peptides (0.1 mM) were incubated with Pepsin (3 mg/ml) in 0.02M acetate buffer (pH 2). The amount of intact peptide was monitored over time by Matrix-assisted laser desorption/ionization time-of-flight (MALDI-TOF) on a Bruker Autoflex III instrument (Bruker Optics, Inc., USA). Internal standards (Bombesin, ACTH (1–17), ACTH (18–39) and Insulin) were used to quantify the relative amount of peptide in each sample.

Another data set has as its target T2, human LPL (Homo sapiens, UniProt P06858).
T2 sequence (P06858 28-475): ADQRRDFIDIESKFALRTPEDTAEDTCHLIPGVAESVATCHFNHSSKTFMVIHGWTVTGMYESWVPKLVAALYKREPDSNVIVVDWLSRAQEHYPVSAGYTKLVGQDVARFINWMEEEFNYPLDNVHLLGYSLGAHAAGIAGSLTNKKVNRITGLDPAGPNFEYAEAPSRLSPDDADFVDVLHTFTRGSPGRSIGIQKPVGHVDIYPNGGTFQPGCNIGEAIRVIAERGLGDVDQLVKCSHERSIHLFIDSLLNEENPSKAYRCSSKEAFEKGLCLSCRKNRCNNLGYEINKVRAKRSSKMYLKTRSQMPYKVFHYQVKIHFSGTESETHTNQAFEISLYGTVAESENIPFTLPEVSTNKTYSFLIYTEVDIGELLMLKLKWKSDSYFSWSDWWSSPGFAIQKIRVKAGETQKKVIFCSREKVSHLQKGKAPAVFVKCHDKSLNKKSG
Briefly: Isothermal titration calorimetry LPL activity assay in pooled human plasma. The following applies: normolipidemic pooled human EDTA-plasma nearly undiluted, 1 nM human LPL injections, 25°C, initial rate, on top of endogenous activators, triplicates. It is filed as biochemical. The procedure: Isothermal titration calorimetry (ITC) measurements, which depends upon the initial rate of reaction, were performed to assess peptide activation of LPL in nearly undiluted human plasma as previously described ([22], [23]). Peptides in 20 mM TRIS, pH 8.2 at the indicated concentrations were added to a normolipidemic EDTA-plasma pool. The reaction was initiated by three sequential injections of 1 nM human LPL. The heat of the reaction was monitored with the iTC200 calorimeter (GE Healthcare, USA) and the initial reaction rates at 25°C were converted into relative activity units.

The test system of data set [4] is Apoc2^h/h mice. The following applies: ApoC2 hypomorphic mice, single intravenous injection, within a few hours; cited from earlier work. From the text: (§3) We recently developed a bi-helical ApoC2 mimetic peptide called D6PV that contains 41 amino acids ([16]). ApoC2 mimetic peptides could potentially be used as a treatment for pancreatitis in patients with genetic APOC2 deficiency and for the prevention of cardiovascular disease in patients with moderate elevations in plasma triglycerides ([1]). […] Except for one amino acid substitution, the secon ...

Another data set has as its system hAPOC3-tg mice. The following applies: ApoC3 transgenic mice; cited from earlier work.
Source text: as §3

Another data set addresses Proteinase K (Parengyodontium album, UniProt P06873). The format is in vitro ADME. As for the experimental part:
as §2

The target of data set [5] is T1, LPL from bovine milk. As to the kind of experiment: In vitro LPL activation assay after pepsin treatment. The format is biochemical. The following applies: 1 h pepsin at pH 2, then pH neutralised; compared with untreated peptide, area-under-the-curve, triplicates. The procedure:
as §1, §2
Figure 4 Peptide proteolysis resistance. […]

The next data set deals with Pepsin. Briefly: Peptide proteolysis resistance, pepsin. The format is in vitro ADME. The following applies: peptide 0.1 mM, pepsin 3 mg/ml, 0.02M acetate buffer pH 2, 1 h, MALDI-TOF with internal standards, triplicates. As for the experimental part: as §2
A short description of data set [6]: DMPC vesicle clearance (solubilization) assay. It is filed as physicochemical. The following applies: peptide 0-100 µM in 20 mM TRIS pH 8.2, DMPC vesicles 0.5 mg/ml in PBS, absorbance 660 nm, 1 h, 24°C. As for the experimental part: Dimyristoyl Phosphatidyl Choline (DMPC) (Avanti 850345C) vesicles were made by sonication (0.5 mg/ml) in phosphate buffer saline (PBS). Peptides (0, 25, 50 and 100 µM) in 20 mM TRIS, pH 8.2 were added to DMPC vesicles (0.5 mg/ml) prepared by sonication in PBS and turbidity was monitored in a Victor^3 plate reader (Perkin Elmer, USA) by monitoring absorbance at 660 nm for 1 h at 24°C. Samples were shaken at 300 RPM. Absorbance over time was plotted and areas-under-the-curve (AOC) were calculated. PBS was used as a negative control sample and Triton X-100 at a final concentration of 1% (w/v) was used as positive control.

pEC50: −log10 of the molar value. Like-named read-outs stand apart in the source and are kept apart here. Residues, ends and D or L forms follow the SMILES beside them. Some results are limits rather than exact numbers.

Chain of Proteinase K (P06873 106-384): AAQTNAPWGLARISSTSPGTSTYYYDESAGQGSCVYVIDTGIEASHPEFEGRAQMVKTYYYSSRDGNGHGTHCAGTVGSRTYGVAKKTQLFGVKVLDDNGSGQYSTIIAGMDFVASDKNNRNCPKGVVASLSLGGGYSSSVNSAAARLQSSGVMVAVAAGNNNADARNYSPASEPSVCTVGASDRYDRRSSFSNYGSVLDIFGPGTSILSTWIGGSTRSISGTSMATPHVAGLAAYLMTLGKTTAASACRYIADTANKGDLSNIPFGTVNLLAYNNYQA

In the case of `CC[C@H](C)[C@H](NC(=O)CNC(=O)[C@@H](NC(=O)[C@H](Cc1ccc(O)cc1)NC(=O)[C@@H](NC(=O)[C@H](CO)NC(=O)[C@@H](NC(=O)[C@H](C)NC(=O)[C@@H]1CCCN1C(=O)[C@@H](NC(=O)[C@H](Cc1ccccc1)NC(=O)[C@H](CCCCN)NC(=O)[C@H](CCC(=O)O)NC(=O)[C@H](Cc1ccc(O)cc1)NC(=O)[C@H](CC(C)C)NC(=O)[C@H](CC(=O)O)NC(=O)[C@H](CCCNC(=N)N)NC(=O)[C@H](CC(C)C)NC(=O)[C@H](CCCCN)NC(=O)[C@H](CCC(=O)O)NC(=O)[C@H](Cc1ccccc1)NC(=O)[C@@H](NC(=O)[C@H](CCC(=O)O)NC(=O)[C@H](CCCCN)NC(=O)[C@H](CC(C)C)NC(=O)[C@H](Cc1ccc(O)cc1)NC(=O)[C@@H](N)CC(=O)O)C(C)C)[C@@H](C)O)C(C)C)[C@@H](C)O)[C@@H](C)O)C(=O)N[C@@H](Cc1ccccc1)C(=O)N[C@H](C(=O)N[C@@H](CC(=O)O)C(=O)N[C@@H](CCC(N)=O)C(=O)N[C@H](C(=O)N[C@@H](CC(C)C)C(=O)N[C@@H](CO)C(=O)N[C@H](C(=O)N[C@@H](CC(C)C)C(=O)N[C@@H](CCCCN)C(=O)NCC(=O)N[C@@H](CCC(=O)O)C(=O)N[C@@H](CCC(=O)O)C(=O)O)C(C)C)C(C)C)[C@@H](C)O` [D6PV, reference compound] (H-DYLKEVFEKLRDLYEKFTPAVSTYTGIFTDQVLSVLKGEE-OH; N-terminus assumed), on LPL from bovine milk [1], the pEC50 was 6.97. For the same compound, in [2], the “alpha-helical secondary structure by CD” value is on record as 42%. Also, the “reduction in plasma triglycerides” value in the data set with Apoc2^h/h mice [3] (3 h after injection) is above 90%. Besides, the plasma cholesterol result with Apoc2^h/h mice [3] was “lowered plasma cholesterol”. In addition, in the data set on trypsin, the “intact full-length peptide after trypsin incubation” value is given as “essentially no intact peptide was detected”. Moreover, the “LPL activity by isothermal titration calorimetry” value on human LPL is “doubled the activity of LPL”. Moreover, the results for the “plasma TG” value in the data set on Apoc2^h/h mice [4] and in the data set on hAPOC3-tg mice were “markedly lowered TG” and “lowered TG”, respectively. In addition, the “intact full-length peptide after Proteinase K incubation” value at Proteinase K (pH 8.2) was “essentially no intact peptide was detected”. On LPL from bovine milk [5], the “ability to activate LPL after pepsin treatment” value is “almost completely inactive”. Also, the “intact full-length peptide after pepsin incubation” value in the data set on Pepsin was “No intact peptide was observed”.

As for `CCCC[C@H](NC(=O)[C@H](C)NC(C)=O)C(=O)N[C@]1(C)CCCCCCC=CCCCC2(CCCC=CCCCCCC[C@@](C)(C(=O)N[C@@H](CCCCN)C(=O)N(C)CC(=O)N[C@H](CCC(=O)O)C(=O)N[C@H](CCC(=O)O)C(=O)O)NC(=O)[C@H](C(C)C)NC(=O)[C@H](CO)NC(=O)[C@H](CC(C)C)NC(=O)[C@H](C(C)C)NC(=O)[C@H](CCC(N)=O)NC(=O)[C@H](CC(=O)O)NC2=O)NC(=O)[C@H](Cc2ccccc2)NC(=O)[C@H]([C@@H](C)CC)NC(=O)CNC(=O)[C@H]([C@@H](C)O)NC(=O)[C@H](Cc2ccc(O)cc2)NC(=O)[C@H]([C@@H](C)O)NC1=O` (stereo partly drawn) [SP2], the “in vitro LPL activation, dose response (result in words)” value at LPL from bovine milk [1] (0-2 µM peptide, bovine milk LPL, ApoC2-deficient plasma substrate, 37°C 1 h, NEFA read-out, triplicates) was “slightly more potent than SP1”. Further, in data set [2], the “alpha-helical secondary structure by CD” value was 46%. In the data set on trypsin, the “intact full-length peptide after trypsin incubation” value is listed as “resistant to both proteases”. Moreover, in data set [6], the DMPC vesicle solubilization result is reported as “most effective in solubilizing DMPC vesicles”. For the same compound, the “intact full-length peptide after Proteinase K incubation” value at Proteinase K (peptide 0.1 mM, 16 ug/kg Proteinase K, 20 mM ammonium bicarbonate pH 8.2, 37°C, MALDI-TOF with internal standards, first time point 3 h, triplicates) is on record as “resistant to both proteases”. Also, at LPL from bovine milk [5], the “ability to activate LPL after pepsin treatment” value is recorded as “fully active”. Further, the “intact full-length peptide after pepsin incubation” value in the data set on Pepsin is listed as “resistant to proteolysis”.
